From US6399654B1, “Biflavanoids and derivatives thereof as antiviral agents” (priority 1995, dated 2002)
Values after ≈ are worked out from the molar mass of the structure shown. Structures can show the parent of a compound that is named as a salt. Where two headings read alike, the source gives them in different places.

Columns and labels:
[1] = test system: Adenovirus Type 5; test: Adenovirus type 5 neutral red dye uptake in A549 cells; format: cell-based; details: Adenovirus Type 5
[2] = test system: Human lung carcinoma (A549) cells
[3] = test system: Human lung carcinoma (A549) cells; details: Adenovirus Type 5 test
[4] = test system: Adenovirus Type 5; test: microbe, parasite or virus in culture; format: cell-based
[5] = test system: 2.2.15 cells; test: HBV cytotoxicity assay, neutral red dye uptake in 2.2.15 cells; format: cell-based; details: Homo sapiens, read-out: IC50 (toxicity, neutral red dye uptake)
Experimental: The toxicity of the test compounds in cultures of 2.2.15 cells, grown to confluence in 96-well flat-bottomed tissue culture plates and treated with compounds as described above, were assayed at four concentrations each in triplicate cultures, in 3 to 10-fold steps. Untreated control cultures were maintained on each plate. On each plate, wells containing no cells were used to correct for light scattering.
Stock solutions of text drugs were prepared in DMSO.

[6] = test system: Hepatitis B Virus (HBV); test: Inhibition of HBV replication in 2.2.15 cells, extracellular (virion) HBV DNA; details: for SI (CC50/EC90), HBV Virion: selective index;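 as to all read-outs here: extracellular virion HBV DNA in culture medium measured by slot blot hybridization with a 32P-labeled HBV probe, quantified against HBV DNA standards, after 9 days of daily dosing, compared with day 0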
[7] = molecular target: T1, HIV-1 RT (Human immunodeficiency virus type 1 group M subtype B, UniProt P03366); test: Anti-HIV-1 RT assay (recombinant enzyme); format: biochemical; details: for inhibition at 200 µg/mL: read-out: Anti-HIV-1 RT % Inhibition at 200 μg/ml
T1 construct: made in house; host or cells: Escherichia coli

[8] = test system: HIV-1 (strain LAV-1); test: microbe, parasite or virus in culture; format: cell-based; details: for Selective Index (SI): PBM cells
[9] = Cytotoxicity in uninfected PHA-stimulated human PBM cells; details: human
[10] = test system: adenovirus type 1; test: Activity against adenovirus type 1; format: cell-based; details: Human mastadenovirus C
[11] = test system: Respiratory Syncytial Virus; test: microbe, parasite or virus in culture; format: cell-based; details: human respiratory syncytial virus, MA104; read-out: CPE Inhibition EC50
[12] = in vitro; details: human
[13] = test system: Influenza A (H3N2) Beijing/32/92; test: microbe, parasite or virus in culture; format: cell-based, influenza A virus; details: Influenza A virus, MDCK; Influenza A (H3N2) Beijing/32/92; read-out: Neutral Red EC50
[14] = in vitro; details: dog, Neutral Red IC50 (cytotoxic)
[15] = test system: Parainfluenza Type 3 Virus; test: organism not typed; format: cell-based; details: MA104, read-out: Neutral Red EC50
[16] = test system: Influenza A (H1N1) Texas/36/91; test: microbe, parasite or virus in culture; format: cell-based, influenza A virus; details: Influenza A virus, MDCK; Influenza A (H1N1) Texas/36/91; read-out: Neutral Red EC50
[17] = test system: Measles Virus; test: microbe, parasite or virus in culture; format: cell-based; details: Measles morbillivirus, BSC-1; Measles Virus; read-out: CPI Inhibition EC50
[18] = in vitro; details: African green monkey
[19] = test system: HCMV; test: HCMV CPE inhibition in HFF cells
[20] = test system: Respiratory Syncytial Virus; test: microbe, parasite or virus in culture; format: cell-based; details: human respiratory syncytial virus, MA104; read-out: Neutral Red EC50
[21] = Cytotoxicity by neutral red dye uptake, BSC-1 cells; details: African green monkey
[22] = in vitro; details: African green monkey; remark: listed apart in the source
[23] = Cytotoxicity by neutral red dye uptake, MA-104 cells; details: African green monkey, Neutral Red IC50 (cytotoxic)
[24] = test system: Influenza A (H1N1) Texas/36/91; test: microbe, parasite or virus in culture; format: cell-based, influenza A virus; details: Influenza A virus, MDCK; Influenza A (H1N1) Texas/36/91; read-out: CPE Inhibition EC50
[25] = in vitro; details: dog
[26] = test system: Influenza B Panama/45/90; test: microbe, parasite or virus in culture; format: cell-based; details: Influenza B virus, MDCK, read-out: Neutral Red EC50
[27] = test system: Measles Virus; test: Measles virus neutral red dye uptake in BSC-1 cells; format: cell-based; details: Measles morbillivirus, BSC-1
[28] = test system: VZV; test: VZV plaque reduction assay in HFF cells
[29] = test system: Influenza B Panama/45/90; test: microbe, parasite or virus in culture; format: cell-based; details: Influenza B virus, MDCK; Influenza B Panama/45/90; read-out: CPE Inhibition EC50
[30] = test system: Influenza A (H3N2) Beijing/32/92; test: microbe, parasite or virus in culture; format: cell-based, influenza A virus; details: Influenza A virus, MDCK; Influenza A (H3N2) Beijing/32/92; read-out: CPE Inhibition EC50
[31] = Cytotoxicity by neutral red dye uptake, A549 cells; details: human
[32] = test system: HSV-2; test: HSV-2 CPE inhibition in HFF cells
[33] = test system: HSV-1; test: HSV-1 CPE inhibition in HFF cells
[34] = Cytotoxicity (CC50) in HFF cells in the herpes virus tests; details: human
[35] = test system: HFF Cells; test: as above; details: HFF Cells, HSV-2 test
[36] = Hepatitis B virus, 216 h, read-out: EC50 (50% effective dose), HBV Virion, 2.2.15 cells, extracellular (virion) HBV DNA, 9 days treatment
[37] = Hepatitis B virus, 216 h, read-out: EC90 (90% effective dose), HBV Virion, 2.2.15 cells, extracellular (virion) HBV DNA, 9 days treatment
[38] = Hepatitis B virus, read-out: EC50, concentration necessary to decrease HBV DNA levels by 50%, 2.2.15 cells, combinations: with respect to RF
[39] = Hepatitis B virus, read-out: EC90, concentration necessary to decrease HBV DNA levels by 90%, 2.2.15 cells, combinations: with respect to RF

Compound: Nc1ncnc2c1ncn2C[C@@H](CO)OCP(=O)(O)O [HPMPA, (S)-1-(3-hydroxy-2-phosophonylmethoxypropyl)adenine, reference compound]
- Neutral Red EC50 [1]: 8 µg/mL
- Neutral Red IC50 (cytotoxic) [2]: 40 µg/mL
- CPE Inhibition IC50 (cytotoxic) [3]: 80 µg/mL
- CPE Inhibition EC50 [4]: 30 µg/mL

Compound: Nc1ccn([C@@H]2CS[C@H](CO)O2)c(=O)n1 [Lamivudine (3TC), lamivudine, reference compound]
- IC50 [5]: 1790 µM
- EC50 [6, 36]: 0.038 µM
- EC90 [6, 37]: 0.16 µM
- EC50 [6, 38]: 0.038 µM
- EC90 [6, 39]: 0.16 µM
- SI (CC50/EC90), HBV Virion [6]: 11200

Compound: O=C1c2c(O)cc(O)cc2O[C@H](c2ccc(O)cc2)[C@H]1c1c(O)cc(O)c2c(=O)cc(-c3ccc(O)c(O)c3)oc12 [Morelloflavone(7), morelloflavone]
- IC50 ([7]; Anti-HIV-1 RT IC50, values in parentheses or in words): 116 µM
- IC50 ([7]; HIV-1 RT IC50 (50% inhibition dose)): 116 µM
- inhibition at 200 µg/mL [7]: 99.2%
- anti-HIV-1 activity in PBM cells (in words) [8]: potent inhibitory activity
- EC50 ([8]; Human immunodeficiency virus 1, PBMC, human PBM cells infected with HIV-1 (strain LAV), read-out: Ant-HIV-1 in PBM cells EC50): 5.7 µM
- EC50 ([8]; Human immunodeficiency virus 1, PBMC, read-out: EC50 (50% effective dose) in PBM cells infected with HIV-1, whole cell assay): 5.7 µg/mL
- Selective Index (SI) [8]: 12
- Selective Index (SI) ([8]; listed as Morelloflavone): approximately 10
- EC50 ([8]; human PBM cells infected with HIV-1 (strain LAV), read-out: Ant-HIV-1 in PBM cells EC50): 8 µM
- EC50 (50% effective dose) in PBM cells infected with HIV-1 ([8]; whole cell assay): 8.0 µg/mL
- IC50 [9]: 82 µM

Compound: Nc1nc2c(ncn2CCC(CO)CO)c(=O)[nH]1 [Penciclovir, penciclovir, reference compound]
- IC50 [5]: 433 µM
- EC50 [6, 36]: 0.19 µM
- EC90 [6, 37]: 0.92 µM
- EC50 [6, 38]: 0.19 µM
- EC90 [6, 39]: 0.92 µM
- SI (CC50/EC90), HBV Virion [6]: 471

Compound: O=c1cc(-c2ccc(O)c(-c3c(O)cc4oc(-c5ccc(O)cc5)cc(=O)c4c3O)c2)oc2cc(O)cc(O)c12 [Robustaflavone sodium salt, Robustaflavone tetrasodium salt]
- EC50 [10]: 32 µM
- IC50 ([10]; 50% cell inhibitory (cytotoxic) concentration, read-out: IC50 in the adenovirus type 1 test): > 160 µM
- fold less active/potent than robustaflavone against HBV ([6]; in vitro assay against HBV): approximately 10 fold
- EC50 ([6]; read-out: EC50 (50% effective dose), HBV Virion, 2.2.15 cells, extracellular (virion) HBV DNA, 9 days treatment): 3.1 µM
- EC90 ([6]; read-out: EC90 (90% effective dose), HBV Virion, 2.2.15 cells, extracellular (virion) HBV DNA, 9 days treatment): 12 µM
- SI (CC50/EC90), HBV Virion [6]: 88

Compound: COc1ccc(-c2cc(=O)c3c(OC)cc(OC)c(C4C(=O)c5c(OC)cc(OC)cc5OC4c4ccc(OC)cc4)c3o2)cc1 (stereo not drawn) [Volkensiflavone hexamethyl ether (6), volkensiflavone hexamethyl ether]
- EC50 [11]: ~18 µg/mL (≈ 28.8 µM)
- activity against HIV-1 RT (in words) [7]: inactive
- inhibition at 200 µg/mL [7]: 0%
- Anti-HIV-1 RT IC50 ([7]; values in parentheses or in words): Inactive
- IC50 [12]: 47 µg/mL (≈ 75.2 µM)
- EC50 [13]: ~100 µg/mL (≈ 160 µM)
- IC50 ([14]; Influenza A (H1N1) test): ~100 µg/mL (≈ 160 µM)
- IC50 ([14]; Influenza A (H3N2) test): ~100 µg/mL (≈ 160 µM)
- IC50 ([14]; Influenza B test): ~100 µg/mL (≈ 160 µM)
- EC50 [15]: > 32 µg/mL
- EC50 [16]: ~100 µg/mL (≈ 160 µM)
- EC50 [17]: < 70 µg/mL
- IC50 ([18]; CPE Inhibition IC50 (cytotoxic), Respiratory Syncytial Virus test): ~30 µg/mL (≈ 48 µM)
- IC50 ([18]; CPI Inhibition IC50 (cytotoxic), Parainfluenza Type 3 Virus test): ~15 µg/mL (≈ 24 µM)
- EC50 ([1]; Human mastadenovirus C, A549, read-out: Neutral Red EC50): > 100 µg/mL
- HCMV SI (CC50/EC50) ([19]; HFF Cells): 0
- EC50 ([19]; Human betaherpesvirus 5, HFF, read-out: HCMV CPE Inhibition EC50): > 100 µg/mL
- EC50 [20]: > 32 µg/mL
- IC50 [21]: < 13 µg/mL
- IC50 [22]: < 60 µg/mL
- IC50 ([23]; Parainfluenza Type 3 Virus test): ~33 µg/mL (≈ 52.8 µM)
- IC50 ([23]; Respiratory Syncytial Virus test): ~59 µg/mL (≈ 94.5 µM)
- EC50 [24]: ~100 µg/mL (≈ 160 µM)
- IC50 ([25]; CPE Inhibition IC50 (50% cell inhibitory (cytotoxic) concentration), Influenza A (H1N1) test): < 24 µg/mL
- IC50 ([25]; CPE Inhibition IC50 (cytotoxic), Influenza A (H3N2) test): ~100 µg/mL (≈ 160 µM)
- IC50 ([25]; CPE Inhibition IC50 (cytotoxic), Influenza B test): ~100 µg/mL (≈ 160 µM)
- EC50 [26]: < 20 µg/mL
- EC50 [27]: < 7 µg/mL
- VZV SI (CC50/EC50) ([28]; HFF Cells): 3.4
- EC50 ([28]; Human alphaherpesvirus 3, HFF, read-out: VZV Plaque Reduction EC50): 3.3 µg/mL (≈ 5.28 µM)
- EC50 [29]: 2.6 µg/mL (≈ 4.16 µM)
- EC50 [30]: ~100 µg/mL (≈ 160 µM)
- IC50 [31]: 50 µg/mL (≈ 80 µM)
- anti-HBV activity (in words) ([6]; 2.2.15 cells): moderate anti-HBV activity
- EC50 [6, 36]: 11 µM
- EC90 [6, 37]: 108 µM
- SI (CC50/EC90), HBV Virion [6]: 1.3
- HSV-2 SI (CC50/EC50) ([32]; HFF Cells): 0
- EC50 ([32]; Human alphaherpesvirus 2, HFF, read-out: HSV-2 CPE Inhibition EC50): > 100 µg/mL
- HSV-1 SI (CC50/EC50) ([33]; HFF Cells): 0
- EC50 ([33]; Human alphaherpesvirus 1, HFF, read-out: HSV-1 CPE Inhibition EC50): > 100 µg/mL
- CC50 at 3 days [34]: > 100 µg/mL
- CC50 at 10 days [34]: 11.1 µg/mL (≈ 17.8 µM)
- CC50 at 14 days [34]: > 100 µg/mL
- HSV-2 CPE Inhibition CC50 [35]: >100 µg/mL
